This note sets out measurements from patent US11731977B2, “SGC stimulators” (Cyclerion Therapeutics, Inc., priority 2016, dated 2023).

Assay [1] relates to rats. Put plainly: Acute and tonic pain: healthy rats, tail flick test (Example 13). To be noted: Morphine 4 mg/kg s.c. In general terms: Thermal pain tests record how soon the animal reacts.
Procedure: Tail Flick Test. A radiant heat was applied on the tail. When the rat felt discomfort, it reacted by a sudden tail movement (tail flick) which automatically stopped the stimulation and the timer for the measurement by the animal reaction time or nociceptive reaction latency (period from the beginning of the stimulation until detection of the response of the animal). A cut-off was previously fixed at 10 sec in order to prevent tissue damage.
(§1) Testing: 120 minutes after treatment. N=4/model/test. Results are expressed for each group as a percentage of activity calculated from the mean value of the vehicle-treated animals and compared to naïve animals, control paw, or cut-off value, depending on the test.
The subject of assay [2] is rats. The experiment in a line: Acute and tonic pain: formalin test, score (Example 13). It is filed as in vivo, rat. The following applies: Morphine 4 mg/kg s.c. As to the method: Formalin Test. 2.5% formalin solution was injected by subplantar route into the right hind paw. Scoring of pain behavior was performed in rats for 36 minutes every 3 minutes according to the following scores:
0=normal behavior of the injected hind limb to support the body
1=slight touching of the injected paw on the floor to lightly support or not support the body
2=total withdrawal of the injected paw
3=licking, biting or shaking of the injected paw

The test system of assay [3] is rats. The experiment in a line: Acute and tonic pain: healthy rats, paw pressure test (Example 13). The following applies: Morphine 4 mg/kg s.c.
Procedure: Paw Pressure Test. Static mechanical hyperalgesia is measured. This test requires the application of an increasing pressure on the hind paws between a flat surface and a blunt pointer. To evaluate the analgesic action of a compound, one hind paw of the animal was inflamed by an injection or injured by ligation, while the other hind paw was not injured or inflamed. The apparatus exerted a steadily increasing force on the hind paws. The reaction threshold was determined as the pressure (g) required to elicit paw withdrawal and/or vocalization. The animals were gently handled by the experimenter and static mechanical hyperalgesia were assessed two times for both hind paws.
as §1
In assay [4] the test system is rats. The experiment in a line: Post-operative pain: Brennan model, electronic Von Frey test (Example 13). The following applies: Morphine 4 mg/kg s.c. It is filed as in vivo, rat. An excerpt: Surgery: Surgery was done under gas anesthesia (2.5% isoflurane/3 L/min). For all rats, the plantar aspect of the left hind paw was exposed and a 1 cm longitudinal incision was made using a surgical blade, through the skin and fascia of the plantar aspect of the foot, starting 0.5 cm from the proximal edge of the heel and extending toward the toes. The plantaris muscle was elevated and incised longitudinally whereas the insertions remained intact. After hemostasis with gentle pressure, the skin was stitched up with two sutures. After surgery, animals recovered in their cages.
Electronic Von Frey Test: Tactile allodynia was assessed using the electronic Von Frey test 24 h after surgery. […] The apparatus exerted a steady force on the hind paws. […] Each reaction threshold measurement was repeated three times for both hind paws with intervals of approximately 2 to 3 mins.

The subject of assay [5] is Sprague-Dawley rats, streptozotocin model. Put plainly: Rat model of diabetic neuropathy (STZ model), paw pressure test (Example 14). Type of assay: in vivo. To be noted: Compound I-1 10 mg/kg p.o., gabapentin 100 mg/kg p.o., morphine 4 mg/kg s.c., mean±s.e.m.

For `CN1CC[C@]23c4c5ccc(O)c4O[C@H]2[C@@H](O)C=C[C@H]3[C@H]1C5` [Morphine, reference compound], the “% of activity vs. vehicle” value is 66% in assay [1]; 57% in assay [2] (Formalin test - score (early phase)); 38% in assay [2] (Formalin test - score (late phase)); 69% in assay [3]; 88% in assay [4]. Moreover, the “nociceptive threshold (paw pressure test)” value amounted to 420 ± 35 g in assay [5] (D18, 60 min post administration); 317 ± 27.6 g in assay [5] (D18, 120 min post administration); 283 ± 16.7 g in assay [5] (D21, 120 min after dosing).
